Measured values from patent publication US5352667A, “Non-peptidic surrogates of the Arg-Gly-Asp sequence and pharmaceutical compositions comprising them” (priority 1991, dated 1994).

Columns and labels:
[1] = system: CD4^+ T cell adhesion to 120 kD fragment of FN; test: Inhibition of activated CD4+ T cell adhesion to 120 kD fragment of FN; assay type: cell-based, human; settings: for % inhibition of adhesion of activated CD4^+ T cell to 120 kD fragment of FN / % Adhesion of activated CD4^+ T cell to 120 kD fragment of FN: 0.2 mM peptides and surrogates, mAb anti-CD29 1/200, anti-VLA5 1/400 diluted; for % inhibition of adhesion of activated CD4^+ T cell to 120 kD fragment of FN: * P<0.05; for % Adhesion of activated CD4^+ T cell to 120 kD fragment of FN: PMA activated, none 43 ± 4; for T cell adhesion to FN, in words: 0.2 mM, 120 kD fragment of FN
Procedure: (§1) To examine the adhesive properties of the T cells, 1 μg/50 μl/well of either fibronectin (FN) (Sigma), the 120 kD cell attachment fragment of FN (Telios Pharm. Inc. San Diego, CA), or laminin (LN) (Sigma), were added to 96-flat bottom microtiter-wells for 12 h. Unbound proteins were then washed away and remaining binding sites were blocked with 0.1% bovine serum albumin (BSA) added to the wells for 2 h and washed. CD4+T cells were purified from peripheral blood mononuclear leukocytes obtained from healthy human donors. The mononuclear cells were isolated using a Ficoll gradient, washed and incubated in RPMI supplemented with 10% fetal calf serum (FCS) and antibiotics in petri dishes at 37° C. humidified CO2 incubator. After 2 h, the non-adherent cells were isolated and applied on nylon-wool columns (1.5 h). CD4^+ T cells were then negatively selected by exposure of the cells to a cocktail of anti-CD8, CD19, and CD14 monoclonal antibodies (mAb) conjugated to magnetic-beads (Advanced Magnetics, MA). Unbound cells were recovered and their phenotype was examined. Purity of the CD4^+ T cells was always greater than 92% as determined by FACScan.
(§2) The purified CD4^+ T cells were radioactively labeled with ^51 [Cr](New England Nuclear) in RPMI +20% FCS for 2 h and washed. The cells were counted and seeded (0.2×10^5 cells) on the precoated microtiter wells in the presence or the absence of the various inhibitors. Coating was made either with FN, the 120 kD cell-attachment fragment of FN or with control adhesive protein laminin (LN). The inhibitors were various surrogates according to the invention, other test molecules or mAb. After 30 min incubation (in […] CO2 -- humidified incubator) the T cells were activated by 10 ng/ml phorbol myristate acetate (PMA) and the percent of T cells attached to the protein substrates was measured. Unbound cells were washed away after 20-30 min, the bound cells were lysed and their radioactivity was measured using radioactive counter. The amount of the radioactivity of the cell lysates represent the matrix-adherent cells and percent binding was calculated in comparison to the total radioactivity added to the wells. Activated T cell adhesion to control wells or to wells coated with BSA was always 2-5%; the level of adhesion of the non-activated T cells was always below 5%. Where indicated, 1/200 diluted mAb anti-CD29 (anti-β1 mAb Serotec, GB), or 1/400 diluted anti-VLA5 (the β1α5 FN-integrin receptor) mAb (Telios Pharm. Inc. San Diego), or 0.2 mM of RGD, GRGDSPK or GRGESP peptides (Sigma) were used. The tested non-peptidic surrogates, 0.2 mM in PBS, were used to pretreat the T cells for 15 min before seeding the cells *, P<0.05. The results shown in Tables 1A, 1B and 1C represent data obtained from several experiments that produced essentially similar results.
(§3) The four RGD surrogates, AC-4.

[2] = system: CD4^+ T cell adhesion to LN; test: Inhibition of activated CD4+ T cell adhesion to laminin (LN); assay type: cell-based, human; settings: for % inhibition of adhesion of activated CD4^+ T cell to LN / % Adhesion of activated CD4^+ T cell to LN: 0.2 mM peptides and surrogates, mAb anti-CD29 1/200, anti-VLA5 1/400 diluted; for % inhibition of adhesion of activated CD4^+ T cell to LN: * P<0.05; for % Adhesion of activated CD4^+ T cell to LN: none 55 ± 5
Procedure: as §1, §2, §3

[3] = biological target: T1, platelet GPIIb-IIIa receptor (Homo sapiens, UniProt P05106+P08514); test: Inhibition of ADP-induced platelet aggregation (platelet rich plasma); assay type: cell-based; settings: FIG. 4; fixed sub-saturating 0.5 mM / 10μg/ml; 4 experiments
T1 construct: Platelet concentrates were prepared from human whole blood; endogenous in cells; host or cells: human platelets in platelet rich plasma
Procedure: To investigate the inhibitory role of the RGD analogues on adhesion, the platelet GPIIb-IIIa receptor which mediates platelet aggregation upon activation was used as a model.
Platelet concentrates were prepared from human whole blood in 10% adenine-citrate-dextrose in Fenwall bags (Baxter Travenol, Israel) followed by standard AABB protocol. Platelet rich plasma was prepared by centrifugation (2500 rpm for 5 min). Samples of platelets were counted in a Minos AST Cell Counter (Levoiselle, France). Cell aggregation was induced by […] and monitored at […] in a 4-channel Aggregometer (Bio-Data, Hatboro, Pa.). To evaluate the effect of the various RGD peptides and the peptide analogues, the platelet rich plasma was pre-incubated with the various inhibitors for 10 min at 37° C. with 10μsolutions followed by the induction of aggregation.
To examine the specificity of the inhibitory effect of the RGD-analogues on platelet aggregation, the cells were treated with various peptidic (RGD and GRGDSP) and non-peptidic (SF-6,6, SF-6,5 and AC-15) RGD analogues used at a fixed sub-saturating concentration of 0.5 mM.
An in vitro assay as described in Example 17 was carried out with the compound NS-11 to examine its ability to interfere with platelet aggregation, and compared it to the SF-6,5 surrogate.
Platelet rich plasma (PRP) was prepared from acid/citrate/dextrose anti-coagulated fresh human blood by differential centrifugation. Platelet aggregation was induced by […] and monitored at 695 nm by a 4-channel Aggregometer (Bio-Data, PA). To evaluate the effect of the RGDS peptide and the NS-8, NS-11 and NS-15 analogs, the PRP was preincubated with the inhibitors for 10 minutes at 37° C., prior to the induction of aggregation. […] In fact, 50% inhibition of platelet aggregation was achieved using a 30-fold lower concentration of NS-11 than that of RGDS.

[4] = system: CD4^+ T cell adhesion to FN; test: Inhibition of activated CD4+ T cell adhesion to FN; assay type: cell-based, human; settings: Table 1B, surrogates 0.2 mM; for % Inhibition of adhesion: CD4^+ T cell to FN; for % Adhesion of activated CD4^+ to FN: none 65
Procedure: as §1
as §2, with “The tested non-peptidic surrogates, 0.2 mM in PBS, were used to pretreat the T cells for 15 min before seeding the cells *, P<0.05.” left out
In a second series of experiments, FN was used in the adhesion assay carried out with the RGD surrogates NS-8, NS-11 and NS-15 in comparison to RGDS peptide.
In a third series of experiments, FN was used in the adhesion assay with the surrogates SF-6,5 and NS-11 and compared to the peptide GRGDSP.

[5] = system: B16-melanoma cells adhesion to VN; test: Inhibition of B16-melanoma cell adhesion to VN; assay type: cell-based, murine; settings: surrogates 0.2 mM; for % inhibition of adhesion of B16-melanoma cells to VN: * P<0.05; for % Adhesion of B16-melanoma cells to VN: none 68 ± 5
Procedure: (§4) To examine the adhesive properties of tumor cells, 1 μg/50μ/well of FN or 0.3μg/well of VN were added to 96-flat bottom microtiter wells for 12 h. Unbound proteins were then washed away and remaining binding sites were blocked with 0.1% BSA added to the wells for 2 h and washed. Murine B16-melanoma F-1 cells were metabolically labeled with ^35 S-methionine (New England Nuclear) for 2 h, chased for 18 h and extensively washed. The cell suspension was resuspened in RPMI supplemented with 1% BSA containing 1 mM CaCl2 and MgCl2. Tumor cell adhesion to control wells or to wells coated with BSA was always 2-5%. The tested non-peptidic surrogates, 0.2 mM in PBS, were used to pretreat the tumor cells for 15 min before seeding the cells *, P<0.05.
(§5) In a first series of experiments, the potential inhibitory action of the RGD surrogate SF-6,5 on adhesion of B16 melanoma cells to FN or VN was compared to that of the RGE surrogate SF-6,6 and to that of RGD, GRGDSPK and GRGESP peptides.

[6] = system: B16-melanoma cells adhesion to FN; test: Inhibition of B16-melanoma cell adhesion to FN; assay type: cell-based, murine; settings: surrogates 0.2 mM; for % inhibition of adhesion of B16-melanoma cells to FN: * P<0.05; for % Adhesion of B16-melanoma cells to FN: none 75 ± 5
Procedure: as §4, §5
In a further set of experiments, the inhibitory activity of the RGD surrogates SF-6,5 and NS-11 on the adhesion of B16 murine melanoma cells to FN was compared to that of the GRGDSP peptide.

T1 sequence (P08514 32-887 limits assumed): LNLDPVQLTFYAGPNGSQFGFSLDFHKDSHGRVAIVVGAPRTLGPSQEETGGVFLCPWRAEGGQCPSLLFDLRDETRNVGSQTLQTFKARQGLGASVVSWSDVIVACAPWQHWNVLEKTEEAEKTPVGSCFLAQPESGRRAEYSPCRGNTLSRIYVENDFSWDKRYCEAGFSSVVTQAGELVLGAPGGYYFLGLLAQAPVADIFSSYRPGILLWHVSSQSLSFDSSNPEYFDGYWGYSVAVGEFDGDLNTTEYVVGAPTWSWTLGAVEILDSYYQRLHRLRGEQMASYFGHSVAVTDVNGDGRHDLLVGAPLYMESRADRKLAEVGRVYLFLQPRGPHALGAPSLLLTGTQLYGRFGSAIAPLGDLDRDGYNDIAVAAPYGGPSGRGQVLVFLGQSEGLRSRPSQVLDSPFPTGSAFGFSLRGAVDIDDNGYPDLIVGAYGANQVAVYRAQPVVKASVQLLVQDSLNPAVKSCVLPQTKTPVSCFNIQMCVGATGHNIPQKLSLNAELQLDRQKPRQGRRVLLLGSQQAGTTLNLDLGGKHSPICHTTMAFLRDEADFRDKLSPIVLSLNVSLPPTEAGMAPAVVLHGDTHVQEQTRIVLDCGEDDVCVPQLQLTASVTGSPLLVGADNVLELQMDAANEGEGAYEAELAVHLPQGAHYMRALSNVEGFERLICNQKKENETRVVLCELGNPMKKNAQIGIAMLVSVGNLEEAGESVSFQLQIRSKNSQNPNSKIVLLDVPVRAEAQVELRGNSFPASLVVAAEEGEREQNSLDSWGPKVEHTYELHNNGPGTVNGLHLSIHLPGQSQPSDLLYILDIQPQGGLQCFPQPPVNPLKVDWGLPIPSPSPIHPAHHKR
T1 sequence (P08514 891-1039 limits assumed): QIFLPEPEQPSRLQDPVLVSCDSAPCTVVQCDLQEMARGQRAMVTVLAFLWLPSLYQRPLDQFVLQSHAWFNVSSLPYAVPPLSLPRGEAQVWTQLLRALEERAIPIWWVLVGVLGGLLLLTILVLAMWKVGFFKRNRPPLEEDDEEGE
T1 sequence (P05106 27-788): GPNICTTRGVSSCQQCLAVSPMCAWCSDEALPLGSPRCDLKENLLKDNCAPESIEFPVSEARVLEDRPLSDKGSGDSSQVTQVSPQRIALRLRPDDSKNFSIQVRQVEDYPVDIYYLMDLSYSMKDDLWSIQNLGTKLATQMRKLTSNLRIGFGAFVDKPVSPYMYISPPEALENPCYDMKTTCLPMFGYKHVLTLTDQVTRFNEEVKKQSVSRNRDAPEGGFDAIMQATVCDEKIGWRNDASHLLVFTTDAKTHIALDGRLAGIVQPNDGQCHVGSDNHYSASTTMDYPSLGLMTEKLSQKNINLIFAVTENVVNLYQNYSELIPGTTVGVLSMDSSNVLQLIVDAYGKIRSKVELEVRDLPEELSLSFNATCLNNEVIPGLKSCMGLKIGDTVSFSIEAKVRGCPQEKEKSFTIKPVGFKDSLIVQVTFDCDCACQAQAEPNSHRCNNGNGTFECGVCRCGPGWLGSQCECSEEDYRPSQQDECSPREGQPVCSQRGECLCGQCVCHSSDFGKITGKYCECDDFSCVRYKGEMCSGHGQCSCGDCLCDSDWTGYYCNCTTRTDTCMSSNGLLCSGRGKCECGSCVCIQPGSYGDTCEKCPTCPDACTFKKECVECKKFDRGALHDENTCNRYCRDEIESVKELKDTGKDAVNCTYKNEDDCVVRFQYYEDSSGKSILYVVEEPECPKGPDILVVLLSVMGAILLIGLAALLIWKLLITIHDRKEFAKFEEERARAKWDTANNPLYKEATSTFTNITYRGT

| Compound | % inhibition of adhesion of activated CD4^+ T cell to 120 kD fragment of FN [1] [%] | % Adhesion of activated CD4^+ T cell to 120 kD fragment of FN [1] [%] | T cell adhesion to FN, in words [1] | % inhibition of adhesion of activated CD4^+ T cell to LN [2] [%] | % Adhesion of activated CD4^+ T cell to LN [2] [%] | Inhibition of platelet aggregation at fixed concentration, in words [3] | % Inhibition of adhesion [4] [%] | % Adhesion of activated CD4^+ to FN [4] [%] | T cell adhesion to LN, in words ([2]; 0.2 mM) | % inhibition of adhesion of B16-melanoma cells to VN [5] [%] | % Adhesion of B16-melanoma cells to VN [5] [%] | % inhibition of adhesion of B16-melanoma cells to FN [6] [%] | % Adhesion of B16-melanoma cells to FN [6] [%] |
| --- | --- | --- | --- | --- | --- | --- | --- | --- | --- | --- | --- | --- | --- |
| N=C(N)NCCCCC(=O)NCC(=O)NCCC(=O)O [AC-4, 4,7-diaza-5,8-dioxo-12-quanidino-dodecanoic acid] | 47 | 16 ± 3 | inhibited T cell adhesion to FN | 0 | 57 ± 4 |  |  |  |  |  |  |  |  |
| N=C(N)NCCCC(=O)NCCC(=O)NCCC(=O)O [AC-14, 4,8-diaza-5,9-dioxo-12-quanidino-dodecanoic acid] | 42 | 25 ± 4 | inhibited T cell adhesion to FN | 0 | 55 ± 6 |  |  |  |  |  |  |  |  |
| N=C(N)NCCCCC(=O)NCCCCCC(=O)O [AC-15, 7-aza-8-oxo-12-quanidino-dodecanoic acid] | 19 | 35 ± 5 | inhibited T cell adhesion to FN | 0 | 52 ± 4 | even higher than that of the GRGDSPK peptide |  |  |  |  |  |  |  |
| N=C(N)NCCCCC(=O)N1CCCCC1C(=O)NCCC(=O)O (stereo not shown) [NS-8] |  |  |  |  |  |  | 31 | 45 |  |  |  |  |  |
| N=C(N)NCCC(=O)Nc1cccc(C(=O)NCCC(=O)O)c1 [NS-15] |  |  |  |  |  |  | 59 | 27 |  |  |  |  |  |
| NCCCCCC(=O)NCCCCC(=O)O [SFN-70, reference compound] | 0 | 42 ± 5 | did not inhibit T cell adhesion to both FN and LN | 0 | 49 ± 6 |  |  |  | did not inhibit T cell adhesion to both FN and LN |  |  |  |  |
| Arg-Gly-Asp [RGD] | 12 | 38 ± 3 | specifically inhibited | 0 | 57 ± 3 | not an effective inhibitor |  |  |  | 0 | 66 ± 6 | 7 | 70 ± 3 |
| GRGESP | 0 | 46 ± 3 |  | 0 | 52 ± 3 |  |  |  |  | 0 | 66 ± 8 | 0 | 73 ± 5 |
| RGDS [reference compound] |  |  |  |  |  |  | 67 | 22 |  |  |  |  |  |
